Key:
MKK6 = target: T1, MKK6 (Homo sapiens, UniProt P52564); experiment: Kinase profiling MKK6; format: biochemical; conditions: 100 micromolar inhibitor concentration; 100 is no change; read-out: residual kinase activity, MKK6
T1 sequence (P52564 1-334): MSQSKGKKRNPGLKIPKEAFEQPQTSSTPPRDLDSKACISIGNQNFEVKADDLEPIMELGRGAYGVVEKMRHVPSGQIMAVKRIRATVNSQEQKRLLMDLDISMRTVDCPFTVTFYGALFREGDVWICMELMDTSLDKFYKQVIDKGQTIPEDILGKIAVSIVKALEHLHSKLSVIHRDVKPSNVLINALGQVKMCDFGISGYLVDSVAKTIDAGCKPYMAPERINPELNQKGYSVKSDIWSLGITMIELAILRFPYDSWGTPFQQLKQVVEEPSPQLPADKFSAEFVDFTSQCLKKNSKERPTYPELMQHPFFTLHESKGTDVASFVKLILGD
Source text: (§1) Any value less that 25 is considered to be highly significant inhibition.

ERK2 = ERK2 (Homo sapiens, UniProt P28482); experiment: Kinase profiling ERK2; format: biochemical; conditions: 100 micromolar inhibitor concentration; 100 is no change; read-out: residual kinase activity, ERK2
Source text: as §1

JNK1 = JNK1 (Homo sapiens, UniProt P45983); experiment: Kinase profiling JNK1; format: biochemical; conditions: 100 micromolar inhibitor concentration; 100 is no change; read-out: residual kinase activity, JNK1
Source text: as §1

JNK2 = JNK2 (Homo sapiens, UniProt P45984); experiment: Kinase profiling JNK2; format: biochemical; conditions: 100 micromolar inhibitor concentration; 100 is no change; read-out: residual kinase activity, JNK2
Source text: as §1

p38d MAPK = target: T2, p38d MAPK (Homo sapiens, UniProt O15264); experiment: Kinase profiling p38d MAPK; format: biochemical; conditions: 100 micromolar inhibitor concentration; 100 is no change; read-out: residual kinase activity, p38d MAPK
T2 sequence (O15264 1-365): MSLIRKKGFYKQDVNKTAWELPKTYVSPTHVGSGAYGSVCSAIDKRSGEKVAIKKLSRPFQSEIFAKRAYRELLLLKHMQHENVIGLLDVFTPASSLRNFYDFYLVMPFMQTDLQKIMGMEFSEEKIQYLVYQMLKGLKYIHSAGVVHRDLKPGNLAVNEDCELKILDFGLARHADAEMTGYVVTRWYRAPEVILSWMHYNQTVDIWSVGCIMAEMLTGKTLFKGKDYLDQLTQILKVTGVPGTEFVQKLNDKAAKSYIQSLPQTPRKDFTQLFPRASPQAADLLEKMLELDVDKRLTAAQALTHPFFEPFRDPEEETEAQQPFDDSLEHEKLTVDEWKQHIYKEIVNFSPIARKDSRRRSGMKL
Source text: as §1

PDK1 = target: T3, PDK1 (Homo sapiens, UniProt O15530); experiment: Kinase profiling PDK1; format: biochemical; conditions: 100 micromolar inhibitor concentration; 100 is no change; read-out: residual kinase activity, PDK1
T3 sequence (O15530 1-556): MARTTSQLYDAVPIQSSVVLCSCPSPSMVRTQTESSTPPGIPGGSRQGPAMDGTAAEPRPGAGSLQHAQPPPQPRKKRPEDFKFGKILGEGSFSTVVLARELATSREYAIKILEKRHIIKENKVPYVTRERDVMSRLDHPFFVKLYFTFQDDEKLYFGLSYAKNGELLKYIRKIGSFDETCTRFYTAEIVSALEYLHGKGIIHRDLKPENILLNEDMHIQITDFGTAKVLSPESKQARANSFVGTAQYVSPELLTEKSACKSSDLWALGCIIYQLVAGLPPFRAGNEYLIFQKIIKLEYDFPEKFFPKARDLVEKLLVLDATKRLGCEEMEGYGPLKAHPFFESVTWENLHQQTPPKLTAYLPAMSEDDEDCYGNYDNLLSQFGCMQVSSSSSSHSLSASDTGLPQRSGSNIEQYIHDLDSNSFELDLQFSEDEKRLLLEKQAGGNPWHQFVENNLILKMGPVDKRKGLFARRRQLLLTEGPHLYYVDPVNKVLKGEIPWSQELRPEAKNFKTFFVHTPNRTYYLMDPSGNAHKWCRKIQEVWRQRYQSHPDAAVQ
Source text: as §1

PKBa = PKBa (Homo sapiens, UniProt P31749); experiment: Kinase profiling PKBa; format: biochemical; conditions: read-out: residual kinase activity, PKBa
Source text: as §1

S6K1 = S6K1 (Homo sapiens, UniProt P23443); experiment: Kinase profiling S6K1; format: biochemical; conditions: 100 micromolar inhibitor concentration; 100 is no change; read-out: residual kinase activity, S6K1
Source text: as §1

PKCγ = PKCγ (Homo sapiens, UniProt P05129); experiment: Kinase profiling PKCγ; format: biochemical; conditions: 100 micromolar inhibitor concentration; 100 is no change; read-out: residual kinase activity, PKCγ
Source text: as §1

MSK1 = MSK1 (Homo sapiens, UniProt O75582); experiment: Kinase profiling MSK1; format: biochemical; conditions: 100 micromolar inhibitor concentration; 100 is no change; read-out: residual kinase activity, MSK1
Source text: as §1

CAMK1 = CAMK1 (Homo sapiens, UniProt Q14012); experiment: Kinase profiling CAMK1; format: biochemical; conditions: 100 micromolar inhibitor concentration; 100 is no change; read-out: residual kinase activity, CAMK1
Source text: as §1

PLK1 = PLK1 (Homo sapiens, UniProt P53350); experiment: Kinase profiling PLK1; format: biochemical; conditions: 100 micromolar inhibitor concentration; 100 is no change; read-out: residual kinase activity, PLK1
Source text: as §1

NEK6 = NEK6 (Homo sapiens, UniProt Q9HC98); experiment: Kinase profiling NEK6; format: biochemical; conditions: 100 micromolar inhibitor concentration; 100 is no change; read-out: residual kinase activity, NEK6
Source text: as §1

PIM1 = PIM1 (Homo sapiens, UniProt P11309); experiment: Kinase profiling PIM1; format: biochemical; conditions: 100 micromolar inhibitor concentration; 100 is no change; read-out: residual kinase activity, PIM1
Source text: as §1

SRPK1 = SRPK1 (Homo sapiens, UniProt Q96SB4); experiment: Kinase profiling SRPK1; format: biochemical; conditions: 100 micromolar inhibitor concentration; 100 is no change; read-out: residual kinase activity, SRPK1
Source text: as §1

HIPK2 = HIPK2 (Homo sapiens, UniProt Q9H2X6); experiment: Kinase profiling HIPK2; format: biochemical; conditions: 100 micromolar inhibitor concentration; 100 is no change; read-out: residual kinase activity, HIPK2
Source text: as §1

MLK3 = MLK3 (Homo sapiens, UniProt Q16584); experiment: Kinase profiling MLK3; format: biochemical; conditions: 100 micromolar inhibitor concentration; 100 is no change; read-out: residual kinase activity, MLK3
Source text: as §1

TAK1 = target: T4, TAK1 (Homo sapiens, UniProt O43318); experiment: Kinase profiling TAK1; format: biochemical; conditions: 100 micromolar inhibitor concentration; 100 is no change; read-out: residual kinase activity, TAK1
T4 sequence (O43318 1-303 limits assumed): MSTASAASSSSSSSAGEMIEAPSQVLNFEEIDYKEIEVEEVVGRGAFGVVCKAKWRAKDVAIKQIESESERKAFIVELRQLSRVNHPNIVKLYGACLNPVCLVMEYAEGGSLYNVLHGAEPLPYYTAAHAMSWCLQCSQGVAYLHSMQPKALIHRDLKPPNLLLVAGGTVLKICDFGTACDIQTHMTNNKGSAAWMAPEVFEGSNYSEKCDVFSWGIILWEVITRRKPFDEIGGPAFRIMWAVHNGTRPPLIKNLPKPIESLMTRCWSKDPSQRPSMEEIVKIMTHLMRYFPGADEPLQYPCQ
T4 sequence (Q15750 437-504 partner limits assumed): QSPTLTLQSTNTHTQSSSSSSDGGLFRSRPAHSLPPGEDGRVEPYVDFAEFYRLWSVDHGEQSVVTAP
Source text: as §1

JAK2 = JAK2 (Homo sapiens, UniProt O60674); experiment: Kinase profiling JAK2; format: biochemical; conditions: 100 micromolar inhibitor concentration; 100 is no change; read-out: residual kinase activity, JAK2
Source text: as §1

HER4 = HER4 (Homo sapiens, UniProt Q15303); experiment: Kinase profiling HER4; format: biochemical; conditions: 100 micromolar inhibitor concentration; 100 is no change; read-out: residual kinase activity, HER4
Source text: as §1

TrkA = TrkA (Homo sapiens, UniProt P04629); experiment: Kinase profiling TrkA; format: biochemical; conditions: 100 micromolar inhibitor concentration; 100 is no change; read-out: residual kinase activity, TrkA
Source text: as §1

AMPK (hum) = experiment: Kinase profiling AMPK (hum); format: biochemical, human; conditions: 100 micromolar inhibitor concentration; 100 is no change
Source text: as §1

TrkA, sequence (P04629 33-796, species assumed): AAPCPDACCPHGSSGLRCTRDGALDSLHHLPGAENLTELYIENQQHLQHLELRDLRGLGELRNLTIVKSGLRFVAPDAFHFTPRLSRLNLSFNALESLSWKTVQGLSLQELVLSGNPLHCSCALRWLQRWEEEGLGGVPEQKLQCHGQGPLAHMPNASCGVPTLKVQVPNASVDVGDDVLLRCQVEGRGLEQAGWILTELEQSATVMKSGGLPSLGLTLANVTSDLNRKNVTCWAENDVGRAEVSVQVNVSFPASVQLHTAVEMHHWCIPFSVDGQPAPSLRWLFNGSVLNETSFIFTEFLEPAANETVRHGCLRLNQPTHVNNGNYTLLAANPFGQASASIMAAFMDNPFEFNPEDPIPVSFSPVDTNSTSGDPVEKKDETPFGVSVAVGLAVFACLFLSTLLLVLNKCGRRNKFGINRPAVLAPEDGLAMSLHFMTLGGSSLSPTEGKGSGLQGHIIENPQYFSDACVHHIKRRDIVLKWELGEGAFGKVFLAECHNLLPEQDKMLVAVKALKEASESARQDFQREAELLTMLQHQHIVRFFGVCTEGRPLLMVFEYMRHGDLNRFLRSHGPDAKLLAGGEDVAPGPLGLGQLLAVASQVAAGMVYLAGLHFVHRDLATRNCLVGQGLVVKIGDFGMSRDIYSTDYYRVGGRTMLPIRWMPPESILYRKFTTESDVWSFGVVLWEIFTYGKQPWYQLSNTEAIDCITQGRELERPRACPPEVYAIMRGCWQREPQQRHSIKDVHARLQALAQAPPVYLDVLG
JAK2, sequence (O60674 whole entry, species assumed): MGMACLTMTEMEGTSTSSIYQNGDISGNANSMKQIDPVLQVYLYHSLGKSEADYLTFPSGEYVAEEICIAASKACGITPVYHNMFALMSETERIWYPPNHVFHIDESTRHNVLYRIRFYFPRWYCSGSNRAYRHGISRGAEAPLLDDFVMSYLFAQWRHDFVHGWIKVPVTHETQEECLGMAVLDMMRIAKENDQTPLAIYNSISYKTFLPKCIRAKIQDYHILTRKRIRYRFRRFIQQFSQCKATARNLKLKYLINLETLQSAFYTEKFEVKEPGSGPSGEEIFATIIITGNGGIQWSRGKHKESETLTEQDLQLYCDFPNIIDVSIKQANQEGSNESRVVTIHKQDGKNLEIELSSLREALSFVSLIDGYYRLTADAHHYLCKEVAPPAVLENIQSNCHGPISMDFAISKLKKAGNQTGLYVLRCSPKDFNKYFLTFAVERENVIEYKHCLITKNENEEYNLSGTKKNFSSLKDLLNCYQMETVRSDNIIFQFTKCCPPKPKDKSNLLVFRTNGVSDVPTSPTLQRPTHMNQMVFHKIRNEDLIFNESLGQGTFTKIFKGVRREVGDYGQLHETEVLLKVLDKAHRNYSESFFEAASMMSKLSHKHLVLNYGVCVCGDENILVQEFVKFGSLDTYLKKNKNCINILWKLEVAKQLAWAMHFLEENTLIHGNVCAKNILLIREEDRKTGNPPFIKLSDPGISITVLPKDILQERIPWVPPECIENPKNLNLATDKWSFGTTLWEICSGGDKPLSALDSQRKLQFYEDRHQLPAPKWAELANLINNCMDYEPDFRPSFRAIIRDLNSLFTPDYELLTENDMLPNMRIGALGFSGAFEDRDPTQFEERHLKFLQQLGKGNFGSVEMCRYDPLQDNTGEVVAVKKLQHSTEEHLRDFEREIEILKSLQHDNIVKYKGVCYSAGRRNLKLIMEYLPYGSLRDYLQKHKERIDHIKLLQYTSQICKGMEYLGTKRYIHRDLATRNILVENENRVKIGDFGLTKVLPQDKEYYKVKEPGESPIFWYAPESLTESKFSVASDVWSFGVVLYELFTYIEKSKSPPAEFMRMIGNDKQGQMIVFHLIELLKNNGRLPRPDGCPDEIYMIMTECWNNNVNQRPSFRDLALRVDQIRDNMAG
JNK1, sequence (P45983 whole entry, species assumed): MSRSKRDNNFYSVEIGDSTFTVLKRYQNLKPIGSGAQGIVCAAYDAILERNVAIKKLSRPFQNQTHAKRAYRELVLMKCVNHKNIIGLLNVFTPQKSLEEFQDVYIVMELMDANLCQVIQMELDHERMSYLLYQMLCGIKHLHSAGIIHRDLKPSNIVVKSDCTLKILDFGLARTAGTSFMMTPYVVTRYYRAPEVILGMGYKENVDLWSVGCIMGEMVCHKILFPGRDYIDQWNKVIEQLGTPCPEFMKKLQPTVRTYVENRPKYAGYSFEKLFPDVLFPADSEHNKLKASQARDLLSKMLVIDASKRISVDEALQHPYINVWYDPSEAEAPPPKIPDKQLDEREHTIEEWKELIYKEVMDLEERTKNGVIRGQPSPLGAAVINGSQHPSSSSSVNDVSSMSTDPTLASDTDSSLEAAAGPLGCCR
S6K1, sequence (P23443 whole entry, species assumed): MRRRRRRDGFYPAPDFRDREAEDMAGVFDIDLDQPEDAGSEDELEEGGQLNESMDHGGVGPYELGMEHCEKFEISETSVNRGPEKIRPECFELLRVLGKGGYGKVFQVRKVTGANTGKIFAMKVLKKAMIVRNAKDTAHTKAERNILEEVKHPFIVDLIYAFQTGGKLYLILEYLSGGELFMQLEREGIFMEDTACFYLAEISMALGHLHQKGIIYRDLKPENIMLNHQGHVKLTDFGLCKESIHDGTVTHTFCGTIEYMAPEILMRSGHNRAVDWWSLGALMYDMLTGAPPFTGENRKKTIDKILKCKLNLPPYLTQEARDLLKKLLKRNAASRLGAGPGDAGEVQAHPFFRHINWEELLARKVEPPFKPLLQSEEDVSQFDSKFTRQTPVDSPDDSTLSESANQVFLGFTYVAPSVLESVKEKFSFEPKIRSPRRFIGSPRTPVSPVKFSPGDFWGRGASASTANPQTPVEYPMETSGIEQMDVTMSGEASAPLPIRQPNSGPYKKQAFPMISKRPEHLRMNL
ERK2, sequence (P28482 whole entry, species assumed): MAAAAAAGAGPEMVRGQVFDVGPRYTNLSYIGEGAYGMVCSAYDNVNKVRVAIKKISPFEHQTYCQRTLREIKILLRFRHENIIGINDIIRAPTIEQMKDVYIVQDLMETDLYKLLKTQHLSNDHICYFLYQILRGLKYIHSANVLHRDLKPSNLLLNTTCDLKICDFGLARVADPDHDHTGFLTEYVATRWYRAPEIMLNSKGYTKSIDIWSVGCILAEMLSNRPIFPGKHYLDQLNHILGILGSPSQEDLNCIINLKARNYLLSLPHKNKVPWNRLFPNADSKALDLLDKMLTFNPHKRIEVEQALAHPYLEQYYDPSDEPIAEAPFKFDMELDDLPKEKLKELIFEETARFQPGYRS
MLK3, sequence (Q16584 whole entry, species assumed): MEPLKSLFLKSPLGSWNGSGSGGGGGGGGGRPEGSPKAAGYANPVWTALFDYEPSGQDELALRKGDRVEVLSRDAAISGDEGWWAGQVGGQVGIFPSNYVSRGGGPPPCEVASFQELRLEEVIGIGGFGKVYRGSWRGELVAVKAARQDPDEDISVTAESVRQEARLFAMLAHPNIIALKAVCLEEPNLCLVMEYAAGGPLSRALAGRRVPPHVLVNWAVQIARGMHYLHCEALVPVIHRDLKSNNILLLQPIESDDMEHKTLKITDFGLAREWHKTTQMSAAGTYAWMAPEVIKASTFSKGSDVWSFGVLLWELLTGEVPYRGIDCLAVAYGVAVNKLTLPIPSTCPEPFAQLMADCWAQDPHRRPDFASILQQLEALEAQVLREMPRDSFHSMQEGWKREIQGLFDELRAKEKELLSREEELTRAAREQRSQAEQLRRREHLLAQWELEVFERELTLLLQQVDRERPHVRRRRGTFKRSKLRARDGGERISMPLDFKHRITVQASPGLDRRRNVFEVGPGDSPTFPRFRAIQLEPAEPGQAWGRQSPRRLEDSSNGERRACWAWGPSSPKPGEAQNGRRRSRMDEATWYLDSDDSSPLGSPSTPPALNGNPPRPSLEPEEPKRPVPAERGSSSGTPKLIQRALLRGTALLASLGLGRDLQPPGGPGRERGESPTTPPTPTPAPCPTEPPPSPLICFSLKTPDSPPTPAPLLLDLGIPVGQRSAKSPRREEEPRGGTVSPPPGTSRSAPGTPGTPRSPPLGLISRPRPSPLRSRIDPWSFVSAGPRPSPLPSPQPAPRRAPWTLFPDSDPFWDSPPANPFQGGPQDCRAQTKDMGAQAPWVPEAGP
PIM1, sequence (P11309 whole entry, species assumed): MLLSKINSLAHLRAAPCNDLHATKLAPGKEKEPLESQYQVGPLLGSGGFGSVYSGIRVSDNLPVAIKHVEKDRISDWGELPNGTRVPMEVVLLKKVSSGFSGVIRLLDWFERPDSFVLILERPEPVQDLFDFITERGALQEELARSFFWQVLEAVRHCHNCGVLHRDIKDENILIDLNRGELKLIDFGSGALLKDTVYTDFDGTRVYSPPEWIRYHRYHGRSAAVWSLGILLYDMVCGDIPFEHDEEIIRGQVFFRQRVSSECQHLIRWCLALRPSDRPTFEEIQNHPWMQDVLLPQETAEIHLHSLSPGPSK
JNK2, sequence (P45984 whole entry, species assumed): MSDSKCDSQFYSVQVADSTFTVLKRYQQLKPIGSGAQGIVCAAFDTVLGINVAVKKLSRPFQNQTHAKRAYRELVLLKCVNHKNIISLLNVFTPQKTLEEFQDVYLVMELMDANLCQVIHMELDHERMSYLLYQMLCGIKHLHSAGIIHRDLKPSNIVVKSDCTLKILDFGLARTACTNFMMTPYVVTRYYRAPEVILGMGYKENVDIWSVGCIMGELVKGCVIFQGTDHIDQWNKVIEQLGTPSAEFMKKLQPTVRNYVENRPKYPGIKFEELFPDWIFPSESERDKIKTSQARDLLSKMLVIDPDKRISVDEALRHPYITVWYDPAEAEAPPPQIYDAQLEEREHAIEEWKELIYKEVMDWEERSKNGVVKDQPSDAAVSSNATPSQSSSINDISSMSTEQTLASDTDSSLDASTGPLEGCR

Row | Compound | remaining activity at 100 µM (MKK6) | remaining activity at 100 µM (ERK2) | remaining activity at 100 µM (JNK1) | remaining activity at 100 µM (JNK2) | remaining activity at 100 µM (p38d MAPK) | remaining activity at 100 µM (PDK1) | remaining activity at 100 µM (PKBa) | remaining activity at 100 µM (S6K1) | remaining activity at 100 µM (PKCγ) | remaining activity at 100 µM (MSK1) | remaining activity at 100 µM (CAMK1) | remaining activity at 100 µM (PLK1) | remaining activity at 100 µM (NEK6) | remaining activity at 100 µM (PIM1) | remaining activity at 100 µM (SRPK1) | remaining activity at 100 µM (HIPK2) | remaining activity at 100 µM (MLK3) | remaining activity at 100 µM (TAK1) | remaining activity at 100 µM (JAK2) | remaining activity at 100 µM (HER4) | also measured
1 | CC(=O)Nc1nc2ccc(O)cc2s1 [Compound 01-71] | 78% | 83% | 72% | 82% | 43% | 63% | 87% | 23% | 76% | 31% | 52% | 97% | 75% | 19% | 44% | 14% | 15% | 11% | 43% | 36% | remaining activity at 100 µM (TrkA): 42%
2 | CC(=O)Nc1nc2ccc(C(F)(F)F)cc2s1 [Compound 01-90] | 85% | 102% | 104% | 87% | 76% | 93% | 104% | 85% | 53% | 87% | 64% | 80% | 107% | 71% | 41% | 16% | 51% | 83% | 73% | 97% | residual kinase activity, AMPK (hum) (AMPK (hum)): 74; remaining activity at 100 µM (TrkA): 45%
3 | CC(=O)Nc1nc2ccc(C#N)cc2s1 [Compound 01-94] | 98% | 91% | 90% | 82% | 69% | 97% | 95% | 73% | 83% | 81% | 80% | 108% | 86% | 26% | 47% | 23% | 55% | 17% | 33% | 90% | residual kinase activity, AMPK (hum) (AMPK (hum)): 40; remaining activity at 100 µM (TrkA): 87%
